Test results taken from ChEMBL document CHEMBL2074377, “Transport of glutathione prostaglandin A conjugates by the multidrug resistance protein 1” (FEBS Lett, 1997).
Blank lines part the entries; values can stand above or below the compound they belong to.

Assays:
Type in all cases: functional, cell membranes, Membrane vesicle
[1] = molecular target: T1, Multidrug resistance-associated protein 1 (Homo sapiens, UniProt P33527); experiment: TP_TRANSPORTER: inhibition of EA-GS uptake (EA-GS: 0.2 uM,PGA2: 10 uM, in the presence of GSH) in membrane vesicles from MRP1-expressing DTY 168 yeast cells; set-up: scale not given: the % may be the effect or the level left; settings: dty 168, 10 µM
[2] = molecular target: MRP1 (Multidrug resistance-associated protein 1) (Homo sapiens, UniProt P33527); experiment: TP_TRANSPORTER: inhibition of EA-GS uptake (EA-GS: 0.2 uM, GA1: 10 uM, in the presence of GSH) in membrane vesicles from MRP1-expressing DTY 168 yeast cells; set-up: scale not given: the % may be the effect or the level left; settings: probe EA-GS (0.2 uM), read-out: Activity
[3] = molecular target: T1, Multidrug resistance-associated protein 1; experiment: TP_TRANSPORTER: uptake in membrane vesicles from MRP1-expressing DTY 168 yeast cells

T1 sequence (P33527 whole entry): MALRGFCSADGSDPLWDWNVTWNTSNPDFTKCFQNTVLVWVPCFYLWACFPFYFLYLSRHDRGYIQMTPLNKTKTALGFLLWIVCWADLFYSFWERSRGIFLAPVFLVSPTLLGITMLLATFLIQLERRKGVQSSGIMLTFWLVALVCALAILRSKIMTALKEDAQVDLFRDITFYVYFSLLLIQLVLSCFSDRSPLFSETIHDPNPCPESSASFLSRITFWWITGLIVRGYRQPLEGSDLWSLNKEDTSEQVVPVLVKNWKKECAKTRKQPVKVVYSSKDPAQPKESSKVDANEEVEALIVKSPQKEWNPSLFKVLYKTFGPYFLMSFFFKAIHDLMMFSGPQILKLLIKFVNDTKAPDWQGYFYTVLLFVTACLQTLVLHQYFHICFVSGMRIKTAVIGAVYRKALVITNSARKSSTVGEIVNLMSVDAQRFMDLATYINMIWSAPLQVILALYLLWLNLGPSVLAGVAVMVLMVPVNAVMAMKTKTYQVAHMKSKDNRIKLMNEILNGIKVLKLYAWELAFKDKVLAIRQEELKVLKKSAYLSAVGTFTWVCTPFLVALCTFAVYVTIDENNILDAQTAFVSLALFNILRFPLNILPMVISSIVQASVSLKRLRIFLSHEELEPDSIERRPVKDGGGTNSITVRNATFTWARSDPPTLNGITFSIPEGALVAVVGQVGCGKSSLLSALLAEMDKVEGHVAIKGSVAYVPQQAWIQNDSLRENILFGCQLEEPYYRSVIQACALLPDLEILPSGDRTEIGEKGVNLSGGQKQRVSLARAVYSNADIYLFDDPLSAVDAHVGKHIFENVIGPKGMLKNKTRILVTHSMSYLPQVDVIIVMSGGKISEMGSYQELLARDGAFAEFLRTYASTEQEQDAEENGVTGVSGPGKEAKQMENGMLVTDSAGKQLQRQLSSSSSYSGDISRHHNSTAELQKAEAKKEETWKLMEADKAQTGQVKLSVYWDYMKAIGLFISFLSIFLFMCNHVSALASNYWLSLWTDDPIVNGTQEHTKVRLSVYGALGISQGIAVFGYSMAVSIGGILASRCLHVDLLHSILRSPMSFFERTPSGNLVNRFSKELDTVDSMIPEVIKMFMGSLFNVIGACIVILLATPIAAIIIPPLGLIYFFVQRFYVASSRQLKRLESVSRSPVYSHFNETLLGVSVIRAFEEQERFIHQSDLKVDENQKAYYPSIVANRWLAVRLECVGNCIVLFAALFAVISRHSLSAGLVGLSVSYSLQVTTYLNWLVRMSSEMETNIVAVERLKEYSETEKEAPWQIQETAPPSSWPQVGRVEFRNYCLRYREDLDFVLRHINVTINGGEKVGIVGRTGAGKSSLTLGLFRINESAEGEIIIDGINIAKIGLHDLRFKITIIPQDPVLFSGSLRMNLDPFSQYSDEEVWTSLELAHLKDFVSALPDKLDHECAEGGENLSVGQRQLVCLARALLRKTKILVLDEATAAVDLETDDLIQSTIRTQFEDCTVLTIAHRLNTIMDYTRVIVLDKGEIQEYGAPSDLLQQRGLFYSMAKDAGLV
Sequence of MRP1 (Multidrug resistance-associated protein 1) (P33527 whole entry): as above

Activity [1]: 9%
SMILES: CCCCC[C@H](O)/C=C/[C@H]1C=CC(=O)[C@@H]1C/C=C\CCCC(=O)O [PROSTAGLANDIN A2]

activity at 10 µM [2]: 15%
SMILES: CCCCC[C@H](O)/C=C/[C@H]1C=CC(=O)[C@@H]1CCCCCCC(=O)O [PROSTAGLANDIN A1]

Km [3]: substrate [Km=0.8-1uM]
SMILES: CCCCC[C@H](O)/C=C/[C@H]1C(SC[C@@H](NC(=O)CC[C@@H](N)C(=O)O)C(=O)NCC(=O)O)CC(=O)[C@H]1C/C=C\CCCC(=O)O (stereo partly drawn)
